target: T1, human TGR5 (Homo sapiens, UniProt Q8TDU6); assay: Cell-based TGR5 assay (cAMP generation, HTRF); conditions: HEK293 cells stably transfected with human TGR5; cAMP by HTRF; 30 minutes at 37° C.; read-out: pEC50 Human TGR5 (converted)
T1 construct: expressed in transfected cells; host or cells: HEK293
T1 sequence (Q8TDU6 1-330): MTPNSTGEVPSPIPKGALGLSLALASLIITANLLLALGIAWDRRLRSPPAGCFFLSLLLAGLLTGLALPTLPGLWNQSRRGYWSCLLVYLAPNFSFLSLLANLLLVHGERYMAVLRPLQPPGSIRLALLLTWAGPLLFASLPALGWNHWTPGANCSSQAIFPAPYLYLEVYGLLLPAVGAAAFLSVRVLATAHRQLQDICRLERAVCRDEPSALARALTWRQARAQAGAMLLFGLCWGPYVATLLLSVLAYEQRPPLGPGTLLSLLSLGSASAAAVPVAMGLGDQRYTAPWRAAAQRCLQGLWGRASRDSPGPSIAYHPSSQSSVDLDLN
How it was run: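 First, compounds in 3-fold serial dilution were placed in HBSS with 10 mM HEPES pH 7.4 and 0.5 mM IBMX. Next, human TGR5-expressing HEK293 cells were added and incubated 30 min at 37° C. Finally, cAMP was detected by HTRF and pEC50 derived by logistic fitting.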

SMILES	EC50 [nM]
CC(CCCC(=O)N(CC(N)=O)C[C@H](O)[C@@H](O)[C@H](O)[C@H](O)CO)c1ccc(Cl)c(CNC2(c3cnccc3-c3ccccc3OC3CC3)CC2)c1 (stereo partly drawn) [Compound I-332, N-(carbamoylmethyl)-5-{4-chloro-3-[({1-[4-(2-cyclopropoxyphenyl)pyridin-3-yl]cyclopropyl}amino)methyl]phenyl}-N-[(2S,3R,4R,5R)-2,3,4,5,6-pentahydroxyhexyl]hexanamide]	< 100
O=C(NCCC1CCN(S(=O)(=O)c2ccc(Cl)c(COC3(c4cnccc4-c4ccccc4OC4CC4)CC3)c2)CC1)[C@@H](O)[C@@H](O)[C@H](O)[C@@H](O)CO [Compound I-462, (2S,3S,4R,5S)-N-(2-{1-[4-chloro-3-({1-[4-(2-cyclopropoxyphenyl)pyridin-3-yl]cyclopropoxy}methyl)benzenesulfonyl]piperidin-4-yl}ethyl)-2,3,4,5,6-pentahydroxyhexanamide]	< 100
O=C(CC1CN(S(=O)(=O)c2ccc(Cl)c(COC3(c4cnccc4-c4ccccc4OC4CC4)CC3)c2)C1)NC[C@H](O)[C@@H](O)[C@H](O)[C@H](O)CO [Compound I-438, 2-{1-[4-chloro-3-({1-[4-(2-cyclopropoxyphenyl)pyridin-3-yl]cyclopropoxy}methyl)benzenesulfonyl]azetidin-3-yl}-N-[(2S,3R,4R,5R)-2,3,4,5,6-pentahydroxyhexyl]acetamide]	< 100
CN(CCCSc1ccc(Cl)c(CNC2(c3cnccc3-c3ccccc3OC3CC3)CC2)c1)C(=O)[C@@H](O)[C@@H](O)[C@H](O)[C@@H](O)CO [Compound I-511, (2S,3S,4R,5S)-N-[3-({4-chloro-3-[({1-[4-(2-cyclopropoxyphenyl)pyridin-3-yl]cyclopropyl}amino)methyl]phenyl}sulfanyl)propyl]-2,3,4,5,6-pentahydroxy-N-methylhexanamide]	< 100
CC(CCCCNC(=O)[C@@H](O)[C@@H](O)[C@H](O)[C@@H](O)CO)c1ccc(Cl)c(COC2(c3cnccc3-c3ccccc3OC3CC3)CC2)c1 (stereo partly drawn) [Compound I-308, (2S,3S,4R,5S)-N-{5-[4-chloro-3-({1-[4-(2-cyclopropoxyphenyl)pyridin-3-yl]cyclopropoxy}methyl)phenyl]hexyl}-2,3,4,5,6-pentahydroxyhexanamide]	< 100
CS(=O)(=O)NCCN(CCCCSc1ccc(Cl)c(COC2(c3cnccc3-c3ccccc3OC3CC3)CC2)c1)C(=O)[C@@H](O)[C@@H](O)[C@H](O)[C@@H](O)CO [Compound I-575, (2S,3S,4R,5S)-N-(4-{[4-chloro-3-({1-[4-(2-cyclopropoxyphenyl)pyridin-3-yl]cyclopropoxy}methyl)phenyl]sulfanyl}butyl)-2,3,4,5,6-pentahydroxy-N-(2-methanesulfonamidoethyl) hexanamide]	< 100
O=C(NCCCCNC(=O)NC[C@H](O)[C@@H](O)[C@H](O)[C@H](O)CO)NCCCCSc1ccc(Cl)c(COC2(c3cnccc3-c3ccccc3OC3CC3)CC2)c1 [Compound I-629, 1-(4-{[(4-{[4-chloro-3-({1-[4-(2-cyclopropoxyphenyl)pyridin-3-yl]cyclopropoxy}methyl)phenyl]sulfanyl}butyl)carbamoyl]amino}butyl)-3-[(2S,3R,4R,5R)-2,3,4,5,6-pentahydroxyhexyl]urea]	< 100
O=C(CCCCc1cc(Cl)c(COC2(c3cnccc3-c3ccccc3OC3CC3)CC2)cc1Cl)NCCCN1CCN(CCCNC(=O)CCCCc2cc(Cl)c(COC3(c4cnccc4-c4ccccc4OC4CC4)CC3)cc2Cl)CC1 [Compound I-101, 5-[2,5-dichloro-4-({1-[4-(2-cyclopropoxyphenyl)pyridin-3-yl]cyclopropoxy}methyl)phenyl]-N-{3-[4-(3-{5-[2,5-dichloro-4-({1-[4-(2-cyclopropoxyphenyl)pyridin-3-yl]cyclopropoxy}methyl)phenyl]pentanamido}propyl)piperazin-1-yl]propyl}pentanamide]	1260 to 10000
CS(=O)(=O)CCN(CCCCSc1ccc(Cl)c(COC2(c3cnccc3-c3ccccc3OC3CC3)CC2)c1)C[C@H](O)[C@@H](O)[C@H](O)[C@H](O)CO [Compound I-613, (2R,3R,4R,5S)-6-[(4-{[4-chloro-3-({1-[4-(2-cyclopropoxyphenyl)pyridin-3-yl]cyclopropoxy}methyl)phenyl]sulfanyl}butyl)(2-methanesulfonylethyl)amino]hexane-1,2,3,4,5-pentol]	< 100
Cc1ccc([C@@H](C)CCCC(=O)N(C)C[C@H](O)[C@@H](O)[C@H](O)[C@H](O)CO)cc1CNC1(c2cnccc2-c2ccccc2OC2CC2)CC1 (single isomer, unassigned) [Compound I-350]	< 100
CC(CCCc1cc(Cl)c(COC2(c3cnccc3-c3ccccc3OC3CC3)CC2)cc1Cl)C(=O)NC[C@H](O)[C@@H](O)[C@H](O)[C@H](O)CO (stereo partly drawn) [Compound I-139, 5-[2,5-dichloro-4-({1-[4-(2-cyclopropoxyphenyl)pyridin-3-yl]cyclopropoxy}methyl)phenyl]-2-methyl-N-[(2S,3R,4R,5R)-2,3,4,5,6-pentahydroxyhexyl]pentanamide]	< 100
Cc1cc(COC2(c3cnccc3-c3ccccc3OC3CC3)CC2)c(Cl)cc1CCCCN [Compound I-166, 4-[5-chloro-4-({1-[4-(2-cyclopropoxyphenyl)pyridin-3-yl]cyclopropoxy}methyl)-2-methylphenyl]butan-1-amine]	< 100
CC(CCCN(CCOCCO)C(=O)[C@@H](O)[C@@H](O)[C@H](O)[C@@H](O)CO)c1ccc(Cl)c(CNC2(c3cnccc3-c3ccccc3OC3CC3)CC2)c1 (stereo partly drawn) [Compound I-286, (2S,3S,4R,5S)-N-(4-{4-chloro-3-[({1-[4-(2-cyclopropoxyphenyl)pyridin-3-yl]cyclopropyl}amino)methyl]phenyl}pentyl)-2,3,4,5,6-pentahydroxy-N-[2-(2-hydroxyethoxy)ethyl]hexanamide]	< 100
Cc1ccc(C(C)CCCCNC(=O)[C@@H](O)[C@@H](O)[C@H](O)[C@@H](O)CO)cc1CNC1(c2cnccc2-c2ccccc2OC2CC2)CC1 (stereo partly drawn) [Compound I-300, (2S,3S,4R,5S)-N-(5-{3-[({1-[4-(2-cyclopropoxyphenyl)pyridin-3-yl]cyclopropyl}amino)methyl]-4-methylphenyl}hexyl)-2,3,4,5,6-pentahydroxyhexanamide]	< 100
COCCN(C[C@H](O)[C@@H](O)[C@H](O)[C@H](O)CO)C(=O)CCCSc1ccc(Cl)c(COC2(c3cnccc3-c3ccccc3OC3CC3)CC2)c1 [Compound I-664, 4-{[4-chloro-3-({1-[4-(2-cyclopropoxyphenyl)pyridin-3-yl]cyclopropoxy}methyl)phenyl]sulfanyl}-N-(2-methoxyethyl)-N-[(2S,3R,4R,5R)-2,3,4,5,6-pentahydroxyhexyl]butanamide]	< 100
CN(CCCCCSc1ccc(Cl)c(COC2(c3cnccc3-c3ccccc3OC3CC3)CC2)c1)C(=O)[C@@H](O)[C@@H](O)[C@H](O)[C@@H](O)CO [Compound I-509, (2S,3S,4R,5S)-N-(5-{[4-chloro-3-({1-[4-(2-cyclopropoxyphenyl)pyridin-3-yl]cyclopropoxy}methyl)phenyl]sulfanyl}pentyl)-2,3,4,5,6-pentahydroxy-N-methylhexanamide]	< 100
O=C1NCCN1CCN(CCCSc1ccc(Cl)c(CNC2(c3cnccc3-c3ccccc3OC3CC3)CC2)c1)C(=O)[C@@H](O)[C@@H](O)[C@H](O)[C@@H](O)CO [Compound I-531, (2S,3S,4R,5S)-N-[3-({4-chloro-3-[({1-[4-(2-cyclopropoxyphenyl)pyridin-3-yl]cyclopropyl}amino)methyl]phenyl}sulfanyl)propyl]-2,3,4,5,6-pentahydroxy-N-[2-(2-oxoimidazolidin-1-yl)ethyl]hexanamide]	126 to 1000
CN(CCCCCc1cc(Cl)c(COC2(c3cnccc3-c3ccccc3OC3CC3)CC2)cc1Cl)C(=O)[C@@H](O)[C@@H](O)[C@H](O)[C@@H](O)CO (stereo in doubt) [Compound I-228, (2S,3S,4R,5S)-N-{5-[2,5-dichloro-4-({1-[4-(2-cyclopropoxyphenyl)pyridin-3-yl]cyclopropoxy}methyl)phenyl]pentyl}-2,3,4,5,6-pentahydroxy-N-methylhexanamide]	< 100
CC(=O)N(CCCCSc1ccc(Cl)c(CNC2(c3cnccc3-c3ccccc3OC3CC3)CC2)c1)C[C@H](O)[C@@H](O)[C@H](O)[C@H](O)CO [Compound I-503, N-[4-({4-chloro-3-[({1-[4-(2-cyclopropoxyphenyl)pyridin-3-yl]cyclopropyl}amino)methyl]phenyl}sulfanyl)butyl]-N-[(2S,3R,4R,5R)-2,3,4,5,6-pentahydroxyhexyl]acetamide]	< 100
O=C([C@@H](O)[C@@H](O)[C@H](O)[C@@H](O)CO)N(CCCCO)CCCCSc1ccc(Cl)c(COC2(c3cnccc3-c3ccccc3OC3CC3)CC2)c1 [Compound I-513, (2S,3S,4R,5S)-N-(4-{[4-chloro-3-({1-[4-(2-cyclopropoxyphenyl)pyridin-3-yl]cyclopropoxy}methyl)phenyl]sulfanyl}butyl)-2,3,4,5,6-pentahydroxy-N-(4-hydroxybutyl)hexanamide]	< 100
Cc1ccc(C(C)CCCC(=O)N(CCCO)C[C@H](O)[C@@H](O)[C@H](O)[C@H](O)CO)cc1CNC1(c2cnccc2-c2ccccc2OC2CC2)CC1 (stereo partly drawn) [Compound I-358, 5-{3-[({1-[4-(2-cyclopropoxyphenyl)pyridin-3-yl]cyclopropyl}amino)methyl]-4-methylphenyl}-N-(3-hydroxypropyl)-N-[(2S,3R,4R,5R)-2,3,4,5,6-pentahydroxyhexyl]hexanamide]	126 to 1000

From patent US12084472B2 (Ardelyx, Inc., priority 2015, dated 2024)
